Data set [1] relates to hDT7 cells. The experiment in a line: cells. In kind it is cell-based, Chinese hamster. The following applies: Cricetulus griseus, V79, 72 h, read-out: IC50 hDT7.
For data set [2], the target named is T1, E. coli nitroreductase (Escherichia coli, UniProt P38489). The data set can be described thus: in vitro. To be noted: pH 7.
Data set [3] deals with SKOV3 human ovarian carcinoma cells infected with adenovirus expressing E. coli nitroreductase (NR+). The experiment in a line: Cytotoxicity in SKOV3 cells infected with adenovirus expressing E. coli nitroreductase (NR+), MTT. In kind it is cell-based. To be noted: for IC50: Homo sapiens, SK-OV-3, 18 h, read-out: IC50 in SKOV3 NR+, 18 hour drug exposure, adenovirus NR, 100 pfu/cell; for Ratio of IC50 values (NR−/NR+): SKOV3, 18 hour drug exposure.

The test system of data set [4] is F179 cells. The data set can be described thus: cells. The following applies: Cricetulus griseus, read-out: IC50 F179.
Data set [5] relates to T116 cells. The data set can be described thus: cells. The data set is classed as cell-based, Chinese hamster. To be noted: for IC50: Cricetulus griseus, read-out: IC50 T116.
Data set [6] relates to SKOV3 human ovarian carcinoma cells not infected (NR−). The experiment in a line: cells. The data set is classed as cell-based. The following applies: Homo sapiens, read-out: IC50 in SKOV3 NR−.
Data set [7] has as its target T1, E. coli nitroreductase. The data set is classed as biochemical. The following applies: 200 μM compound, 1 mM NADH, 1.8 μg E. coli nitroreductase, 10 mM phosphate buffer pH 7.0, 37° C., 250 μL, UV 340 nm.

Read-outs that look alike come from different tables or passages of the source. Where only a bound is given, the exact number is not on record here.

Broadly, the IC50 is the concentration that gives 50% inhibition. The half-life is the time needed for the level to fall by half in the phase considered. Read a low half-life as rapid decline.

T1 sequence (P38489 whole entry): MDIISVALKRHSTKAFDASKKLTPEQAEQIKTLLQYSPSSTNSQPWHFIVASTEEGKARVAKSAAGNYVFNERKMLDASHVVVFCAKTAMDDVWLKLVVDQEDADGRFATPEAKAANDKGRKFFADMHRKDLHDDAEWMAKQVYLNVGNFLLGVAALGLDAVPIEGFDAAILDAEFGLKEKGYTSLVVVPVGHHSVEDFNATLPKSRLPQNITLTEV

As for `NC(=O)c1cc(N2CC2)c([N+](=O)[O-])cc1[N+](=O)[O-]` [CB1954, 5-(aziridin-1-yl)-2,4-dinitrobenzamide, reference compound], the half-inhibitory concentration (IC50) was 1.7 µM in data set [1]; 4 µM in data set [3]; greater than 100 µM in data set [4] (1 h); 254 µM in data set [4] (72 h); 0.306 µM in data set [5] (V79, 1 h); 0.036 µM in data set [5] (V79, 72 h). Also, the IC50 in data set [6] (SK-OV-3, 18 hour drug exposure, uninfected cells) was determined as 600 µM. This molecule also came in with a half-life in data set [2] (E. coli) of 5 min.

Turning to `O=[N+]([O-])c1ccc2c(c1)OP(=O)(N(CCCl)CCCl)NC2` (stereo not shown) [Compound 9b, 7-Nitro-2-[bis(2-chloroethyl)amino]-1,3,2-benzoxazaphosphorinane-2-oxide], the IC50 was 48 µM in data set [1]; 410 µM in data set [3]; 61 µM in data set [4] (72 h); 48 µM in data set [5] (V79, 72 h); 510 µM in data set [6] (SK-OV-3, 18 h). Moreover, in data set [2], the half-life worked out at 11 min. In addition, the “Ratio of IC50 values (NR−/NR+)” value in data set [3] came out at 1.2. Also, in data set [5], the “Ratio of IC50 values (F179/T116)” value is given as 1.3.

For `O=[N+]([O-])c1ccc2c(c1)NP(=O)(N(CCCl)CCCl)OC2` (stereo not shown) [Compound 9c, 7-Nitro-2-[bis(2-chloroethyl)amino]-3,1,2-benzoxazaphosphorinane-2-oxide], the IC50 in data set [1] was greater than 100 µM; in data set [3], 55 µM; in data set [4] (72 h), greater than 100 µM; in data set [5] (V79, 72 h), 3 µM; in data set [6] (SK-OV-3, 18 h), 540 µM. The molecule also displayed a half-life in data set [2] of 13 min. Also, the “Ratio of IC50 values (NR−/NR+)” value in data set [3] turned out to be 9.8. Moreover, in data set [5], the “Ratio of IC50 values (F179/T116)” value is given as greater than 33. Besides, the “NR Assay vi (initial velocity)” value in data set [7] turned out to be 1.63 nmol/min.

The values above are taken from patent US20040214798A1 (priority 2003, published 2004).
